In ChEMBL document CHEMBL4261541, “Synthesis and evaluation of oxindoles as promising inhibitors of the immunosuppressive enzyme indoleamine 2,3-dioxygenase 1” (Medchemcomm, 2017):
Each block holds one compound with its values, some of them ahead of it. Active and inactive are the calls of the source. The calls are words filed in the database; no cut-off is given here.

Legend:
[1] = target: T1, Indoleamine 2,3-dioxygenase 1 (Homo sapiens, UniProt P14902); assay: Inhibition of recombinant human IDO1 assessed as reduction in conversion of L-tryptophan to kynurenine by methylene blue dye based spectrometric method
Target sequence in this assay (P14902 whole entry): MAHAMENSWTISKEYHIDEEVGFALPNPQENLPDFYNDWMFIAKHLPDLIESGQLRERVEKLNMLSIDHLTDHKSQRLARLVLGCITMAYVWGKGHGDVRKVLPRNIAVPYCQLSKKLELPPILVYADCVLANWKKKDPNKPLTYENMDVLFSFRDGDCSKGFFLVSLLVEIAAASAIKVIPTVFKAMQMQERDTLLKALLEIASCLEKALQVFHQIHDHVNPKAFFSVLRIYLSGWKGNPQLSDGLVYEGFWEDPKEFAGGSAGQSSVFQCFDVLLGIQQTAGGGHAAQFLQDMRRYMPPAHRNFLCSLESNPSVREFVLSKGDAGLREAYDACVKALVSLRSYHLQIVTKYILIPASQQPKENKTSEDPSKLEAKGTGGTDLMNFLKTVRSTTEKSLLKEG

[2] = target: T1, Indoleamine 2,3-dioxygenase 1; assay: Inhibition of IFNgamma-stimulated IDO1 in human MDA-MB-231 cells preincubated for 4 hrs followed by tryptophan addition measured after 5 hrs by methylene blue dye based spectrophotometric method; format: cell-based
Target sequence in this assay (P14902 whole entry): as above

[3] = test system: MDA-MB-231; assay: Cytotoxicity against human MDA-MB-231 cells assessed as reduction in cell viability at 2 times IDO1 inhibitory IC50 after 48 hrs by MTT assay; format: functional, cell-based
[4] = test system: A549; assay: Cytotoxicity against human A549 cells assessed as reduction in cell viability at 2 times IDO1 inhibitory IC50 after 48 hrs by MTT assay; format: functional, cell-based
[5] = test system: HeLa; assay: Cytotoxicity against human HeLa cells assessed as reduction in cell viability at 2 times IDO1 inhibitory IC50 after 48 hrs by MTT assay; format: functional, cell-based
[6] = test system: J774.A1; assay: Cytotoxicity against mouse J774A.1 cells assessed as reduction in cell viability at 2 times IDO1 inhibitory IC50 after 48 hrs by MTT assay; format: cell-based; details: j774.a1, 48 h
[7] = test system: MDA-MB-231; assay: Cytotoxicity against human MDA-MB-231 cells assessed as induction of morphological changes at 2 times IDO1 inhibitory IC50 after 48 hrs by cytell imaging analysis; format: functional, cell-based
[8] = target: T1, Indoleamine 2,3-dioxygenase 1; assay: Competitive inhibition of recombinant human IDO1 assessed as reduction in conversion of L-tryptophan to N-formylkynurenine at 200 to 1500 nM by methylene blue dye based spectrometric method
Target sequence in this assay (P14902 whole entry, looked up): as the sequence (P14902 whole entry) above

[9] = target: Tryptophan 2,3-dioxygenase (Homo sapiens, UniProt P48775); assay: Inhibition of recombinant human TDO assessed as reduction in conversion of L-tryptophan to kynurenine by methylene blue dye based spectrometric method
Chain of Tryptophan 2,3-dioxygenase (P48775 whole entry): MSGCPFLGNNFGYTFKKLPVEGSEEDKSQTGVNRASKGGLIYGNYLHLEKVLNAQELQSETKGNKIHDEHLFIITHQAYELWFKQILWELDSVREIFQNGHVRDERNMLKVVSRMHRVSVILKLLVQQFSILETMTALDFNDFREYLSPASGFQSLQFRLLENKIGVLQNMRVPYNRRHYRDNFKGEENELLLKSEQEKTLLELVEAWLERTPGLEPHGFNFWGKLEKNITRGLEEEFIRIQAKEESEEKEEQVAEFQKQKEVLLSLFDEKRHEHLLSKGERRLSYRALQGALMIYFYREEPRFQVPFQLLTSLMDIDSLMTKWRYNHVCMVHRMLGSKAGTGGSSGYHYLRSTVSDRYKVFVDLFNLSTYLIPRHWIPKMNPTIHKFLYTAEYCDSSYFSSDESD

[10] = organism: Homo sapiens; assay: Selectivity ratio of IC50 for human TDO to IC50 for human IDO1
[11] = target: T1, Indoleamine 2,3-dioxygenase 1; assay: Binding affinity to human ferric-IDO1 assessed as blue shift in soret peak at 50 uM by UV-Visible spectrophotometric method
Target sequence in this assay (P14902 whole entry, looked up): as the sequence (P14902 whole entry) above

[12] = target: T1, Indoleamine 2,3-dioxygenase 1; assay: Binding affinity to human ferrous-IDO1 assessed as blue shift in soret peak at 50 uM by UV-Visible spectrophotometric method
Target sequence in this assay (P14902 whole entry, looked up): as the sequence (P14902 whole entry) above

[13] = target: T1, Indoleamine 2,3-dioxygenase 1; assay: Uncompetitive inhibition of recombinant human IDO1 assessed as reduction in conversion of L-tryptophan to N-formylkynurenine at 200 to 1500 nM by methylene blue dye based spectrometric method
Target sequence in this assay (P14902 whole entry, looked up): as the sequence (P14902 whole entry) above

IC50 [1]: 360 nM
EC50 [2]: 460 nM
inhibition [8]: Active
IC50 [9]: 54.7 µM
Ratio IC50 [10]: 152
Compound: CC(=O)/C=C1\C(=O)Nc2ccc(Cl)cc21
Activity [3]: inactive
Activity [4]: inactive
Activity [5]: inactive
Activity [6]: Non-Toxic
Activity [7]: inactive

IC50 [1]: 1780 nM
IC50 [9]: 52.9 µM
Ratio IC50 [10]: 30
Compound: Cc1ccc(S(=O)(=O)N/N=C2\C(=O)Nc3ccccc32)cc1

IC50 [1]: 8330 nM
Compound: NC(=O)[C@@H](N)CC1C(=O)Nc2ccccc21 (stereo partly specified)

IC50 [1]: 620 nM
Activity [11]: Active
inhibition [12]: Active
EC50 [2]: 480 nM
inhibition [8]: Active
IC50 [9]: 83.5 µM
Ratio IC50 [10]: 135
Compound: CC(=O)N[C@@H](CC1C(=O)Nc2ccccc21)C(=O)O (mixture of isomers)
Activity [3]: inactive
Activity [4]: inactive
Activity [5]: inactive
Activity [6]: Non-Toxic
Activity [7]: inactive

IC50 [1]: 2250 nM
Compound: O=C(N[C@@H](CC1C(=O)Nc2ccccc21)C(=O)OCc1ccccc1)OCc1ccccc1 (stereo partly specified)

IC50 [1]: 1580 nM
IC50 [9]: 38.3 µM
Ratio IC50 [10]: 24
Compound: O=C1Nc2ccccc2/C1=N/Nc1ccccc1C(F)(F)F

IC50 [1]: 2560 nM
Compound: O=C1Nc2ccccc2/C1=N\c1ccc(Cl)cc1

IC50 [1]: 1970 nM
Compound: CC(=O)CC1(O)C(=O)Nc2ccc(Cl)cc21 (stereo unspecified)

IC50 [1]: 3740 nM
Compound: O=C1Nc2ccccc2/C1=N/Nc1cccc([N+](=O)[O-])c1

IC50 [1]: 1280 nM
Activity [11]: Active
inhibition [12]: Active
EC50 [2]: 1260 nM
inhibition [8]: Active
IC50 [9]: 27.2 µM
Ratio IC50 [10]: 21
Compound: O=C(N[C@@H](CC1C(=O)Nc2ccccc21)C(=O)O)OCc1ccccc1 (stereo partly specified)
Activity [3]: inactive
Activity [4]: inactive
Activity [5]: inactive
Activity [6]: Non-Toxic
Activity [7]: inactive

IC50 [1]: 1510 nM
IC50 [9]: 46.8 µM
Compound: O=C1N=c2ccccc2=C1NNc1cccc(Cl)c1

IC50 [1]: 890 nM
inhibition [13]: Active
Compound: CC(=O)CC(=O)CC1(O)C(=O)Nc2ccc(Cl)cc21 (stereo unspecified)

IC50 [1]: 4730 nM
Compound: O=C1CCCC(=O)C1C1(O)C(=O)Nc2ccccc21 (stereo unspecified)

IC50 [1]: 1950 nM
Compound: O=C1Nc2ccccc2C1=NNc1ccccc1

IC50 [1]: 1950 nM
Compound: CC(C)(C)OC(=O)N[C@@H](CC1C(=O)Nc2ccccc21)C(=O)O (stereo partly specified)

IC50 [1]: 630 nM
EC50 [2]: 420 nM
inhibition [13]: Active
IC50 [9]: 53.4 µM
Ratio IC50 [10]: 85
Compound: O=C1Nc2ccccc2/C1=N/Nc1ccc(Cl)cc1
Activity [3]: inactive
Activity [4]: inactive
Activity [5]: inactive
Activity [6]: Non-Toxic
Activity [7]: inactive

IC50 [1]: 3970 nM
Compound: NCCC1C(=O)Nc2ccccc21 (stereo unspecified)

IC50 [1]: 13600 nM
Compound: N[C@@H](CC1C(=O)Nc2ccccc21)C(=O)OCc1ccccc1 (stereo partly specified)

IC50 [1]: 450 nM
Activity [11]: 9 nm
inhibition [12]: Active
EC50 [2]: 490 nM
inhibition [8]: Active
IC50 [9]: 56.1 µM
Ratio IC50 [10]: 124
Compound: CC(=O)CC(=O)CC1(O)C(=O)Nc2ccccc21 (stereo unspecified)
Activity [3]: inactive
Activity [4]: inactive
Activity [5]: inactive
Activity [6]: Non-Toxic
Activity [7]: inactive

IC50 [1]: 1690 nM
Compound: CC(=O)/C=C1\C(=O)Nc2ccccc21

Ratio IC50 [10]: 31
Compound: O=C1Nc2ccccc2/C1=N/Nc1cccc(Cl)c1

IC50 [1]: 3390 nM
IC50 [9]: 60.2 µM
Ratio IC50 [10]: 18
Compound: N[C@@H](CC1C(=O)Nc2ccccc21)C(=O)O (stereo partly specified)

IC50 [1]: 190 nM
Activity [11]: Active
inhibition [12]: Active
EC50 [2]: 330 nM
inhibition [8]: Active
IC50 [9]: 39.9 µM
Ratio IC50 [10]: 210
Compound: CC(=O)CC(=O)/C=C1\C(=O)Nc2ccc(Cl)cc21
Activity [3]: inactive
Activity [4]: inactive
Activity [5]: inactive
Activity [6]: Non-Toxic
Activity [7]: inactive

IC50 [1]: 2310 nM
IC50 [9]: 58.3 µM
Ratio IC50 [10]: 25
Compound: O=C(NCCC1C(=O)Nc2ccccc21)OCc1ccccc1 (stereo unspecified)

IC50 [1]: 1580 nM
Compound: O=C(N[C@@H](CC1C(=O)Nc2ccccc21)C(=O)O)c1ccccc1 (mixture of isomers)

Compound: Cn1cc(C[C@H](N)C(=O)O)c2ccccc21
Activity [3]: inactive
Activity [7]: inactive

IC50 [1]: 930 nM
IC50 [9]: 71 µM
Ratio IC50 [10]: 76
Compound: CCOC(=O)C(C(=O)OCC)=C1C(=O)Nc2ccccc21

IC50 [1]: 1240 nM
inhibition [8]: Active
IC50 [9]: 46.2 µM
Ratio IC50 [10]: 37
Compound: O=C1Nc2ccccc2/C1=N/c1ccccc1Br
